Each block holds one molecule with its values, some of them ahead of it.
What was measured:
primary rat hepatocytes [1] = experiment: TGFβ1-induced cytotoxicity (LDH release); assay type: cell-based; conditions: 100 μM, 12 hours, then 1 nmol/L TGF-β1 24 hours; alkaline phosphatase added for compound 19d; p<0.05
Protocol: To compare the in vitro cytoprotective effects of the new prodrugs with UDCA, an alcohol-linked phosphate prodrug (the 3-substituted prodrug compound 3) and the POMC prodrug compound 19d were evaluated for their ability to modulate TGFβ1-induced cytotoxicity. […] Therefore, AP was added to the culture medium whenever assessing the cytoprotective potential of compound 19d. The ability of compound 3 and compound 19d to inhibit TGFβ1-induced general cell death, as compared with UDCA were analyzed. […] Results are expressed as means±SEM of at least three different experiments (*p<0.01 from respective control; §p<0.05 from respective TGFβ). […] Similarly as before, UDCA, compound 3 and compound 19d, inhibited TGFβ1-induced cytotoxicity by about 40, 30 and 60%, respectively (p<0.05).
In another example, primary rat hepatocytes were isolated from male rats (100-150 g) by collagenase perfusion. Briefly, rats were anesthetized with phenobarbital sodium (100 mg/kg body weight) injected into the peritoneal cavity. […] Cell viability was determined by trypan blue exclusion and was typically 80-85%. […]
In another example, LDH, a stable cytosolic enzyme, is released to cell culture media following cell lysis, and can be used as a marker of cytotoxicity. […] Finally, absorbance was measured at 490 nm, with 690 nm as reference, using a Bio-Rad model 680-microplate reader (Bio-Rad Laboratories, Hercules, Calif.).

primary rat hepatocytes [2] = experiment: TGFβ1-induced loss of cellular viability (CellTiter-Fluor viability assay); assay type: cell-based; conditions: presence or absence of 3 U/ml alkaline phosphatase; preliminary results
[3] = stability in Tris glycine buffer without enzyme (31P NMR); assay type: physicochemical; conditions: 0.100 M Tris glycine buffer with 1.0 mM ZnCl2 and 1.0 mM MgCl2, 1 h, no enzyme
Protocol: Compound 19d (10.0 mg, 0.016 mmol) or compound 3 (8.7 mg, 0.016 mmol) was dissolved in 0.6 mL of a 0.100 M Tris glycine buffer solution containing 1.0 mM ZnCl2 and 1.0 mM MgCl2. […] 50 μL of the previously prepared AP stock solution was further diluted by addition to 0.950 mL of a 0.100 M Tris glycine buffer containing 1.0 mM ZnCl2 and 1.0 mM MgCl2. […] A series of 42 inverse-gated decoupled ^31P NMR's were taken (24 scans each, approximately one minute acquisition time). Conversion (%) was determined from the relative integration of the starting material and product peaks, NMR time stamps were used to determine time. Each experiment was repeated three times.

[4] = aqueous solubility of the prodrugs; assay type: physicochemical
Protocol: To obtain the 7-substituted phosphate ester prodrug of UDCA, benzyl ester 1 was treated with benzyl chloroformate and pyridine in dichloromethane as shown in FIG. 2. This led to a mixture of products, including 3-Cbz-protected alcohol (41%) (compound 4), 7-Cbz-protected alcohol (10%) (compound 5), and recovered starting material (41%). These products were readily separated by column chromatography, which allowed definitive confirmation of the regiochemistry of the prodrugs by ^1H NMR analysis, as the signal of the proton next to the Cbz-protected alcohol (Ha in FIG. 2) was a dddd in the major mono-substituted product (consistent with compound 4) and a ddd in the minor mono-substituted product (consistent with compound 5). Compound 4 was then converted into a 7-substituted phosphate ester prodrug (compound 7) using dibenzyl N,N-diethylphosphoramidite followed by oxidation with H2O2 and then Pd/C catalyzed debenzylation. Similar standard conditions converted compound 5 into the same 3-substituted phosphate ester prodrug (compound 3) that was obtained in FIG. 1. Both phosphate prodrugs (compound 3 and compound 7) were highly aqueously soluble, rapidly dissolving at all concentrations tested (up to 20 mg/mL), and were stable in solution for extended periods of time (>6 months) without any apparent decomposition. […]

[5] = molecular target: T1, alkaline phosphatase from bovine intestinal mucosa (Bos taurus, UniProt P19111); experiment: alkaline phosphatase catalyzed activation monitored by inverse-gated decoupled 31P NMR; assay type: biochemical; conditions: in vitro, Tris glycine buffer
T1 construct: alkaline phosphatase from bovine intestinal mucosa; purchased Sigma-Aldrich P5521-2KU; host or cells: bovine intestinal mucosa (tissue-derived)
T1 sequence (P19111 20-506 limits assumed): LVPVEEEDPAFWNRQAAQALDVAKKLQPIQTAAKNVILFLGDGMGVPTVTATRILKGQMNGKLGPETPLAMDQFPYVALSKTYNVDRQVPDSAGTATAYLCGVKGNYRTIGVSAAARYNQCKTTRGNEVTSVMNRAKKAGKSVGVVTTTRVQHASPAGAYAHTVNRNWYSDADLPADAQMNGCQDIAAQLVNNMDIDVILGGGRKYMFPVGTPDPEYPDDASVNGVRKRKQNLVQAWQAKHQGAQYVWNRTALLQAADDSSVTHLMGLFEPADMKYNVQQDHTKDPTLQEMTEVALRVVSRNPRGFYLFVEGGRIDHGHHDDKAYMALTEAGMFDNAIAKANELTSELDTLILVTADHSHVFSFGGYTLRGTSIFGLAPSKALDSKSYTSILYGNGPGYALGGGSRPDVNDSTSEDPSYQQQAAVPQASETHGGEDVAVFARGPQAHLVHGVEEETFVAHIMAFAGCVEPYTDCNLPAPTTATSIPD
Protocol: To determine whether the POMC prodrug was indeed activated under in vitro conditions faster than a prodrug where the phosphate moiety is directly linked to an alcohol, a series of experiments were conducted monitoring the alkaline phosphatase catalyzed activation of the prodrugs compound 19d and compound 3 by inverse-gated decoupled ^31P NMR. […] Each data point represents the mean of three separate experiments±standard error of the mean (SEM).
In another example, alkaline phosphatase from bovine intestinal mucosa (P5521-2KU, Sigma-Aldrich, St. Louis, Mo.) was dissolved in 2.0 mL of a 0.100 M […] glycine buffer containing 1.0 mM ZnCl2 and 1.0 mM MgCl2. This stock solution was stored at 4° C. between uses.
Compound 19d (10.0 mg, 0.016 mmol) or compound 3 (8.7 mg, 0.016 mmol) was dissolved in 0.6 mL of a 0.100 M Tris glycine buffer solution containing 1.0 mM ZnCl2 and 1.0 mM MgCl2. […] 50 μL of the previously prepared AP stock solution was further diluted by addition to 0.950 mL of a 0.100 M Tris glycine buffer containing 1.0 mM ZnCl2 and 1.0 mM MgCl2. 10.0 μL of this diluted AP solution was added to the prodrug solution by syringe. […] Conversion (%) was determined from the relative integration of the starting material and product peaks, NMR time stamps were used to determine time. […]

Compound: C[C@H](CCC(=O)O)[C@H]1CC[C@H]2[C@@H]3[C@@H](O)C[C@@H]4C[C@H](O)CC[C@]4(C)[C@H]3CC[C@]12C [UDCA, Ursodeoxycholic acid]
inhibition of TGFβ1-induced cytotoxicity (LDH release) (primary rat hepatocytes [1]): about 40%

Compound: C[C@H](CCC(=O)O)[C@H]1CC[C@H]2[C@@H]3[C@@H](O)C[C@@H]4C[C@H](OP(=O)([O-])[O-])CC[C@]4(C)[C@H]3CC[C@]12C.[Na+].[Na+] [compound 3, 3-(Phosphonatooxy)-ursodeoxycholic acid sodium salt]
effect of alkaline phosphatase (AP) in the culture medium on cytoprotective properties (primary rat hepatocytes [2]): does not significantly change
inhibition of TGFβ1-induced cytotoxicity (LDH release) (primary rat hepatocytes [1]): ~30%
decomposition by 31P NMR in buffer [3]: Neither compound showed decomposition

aqueous solubility [4]: ≥ 20 mg/mL
Compound: C[C@H](CCC(=O)O)[C@H]1CC[C@H]2[C@@H]3[C@@H](OP(=O)([O-])[O-])C[C@@H]4C[C@H](O)CC[C@]4(C)[C@H]3CC[C@]12C.[Na+].[Na+] [compound 7, 7-(Phosphonatooxy)-ursodeoxycholic acid sodium salt]

Compound: CC(CCC(=O)OCOP(=O)(O)O)C1CCC2C3C(O)CC4CC(O)CCC4(C)C3CCC12C (stereo not shown) [compound 19, ursodeoxycholic acid phosphonooxymethoxy ester]
rate of release of UDCA by alkaline phosphatase (compared with compound 3) [5]: faster
effect of alkaline phosphatase (AP) in the culture medium on cytoprotective properties (primary rat hepatocytes [2]): required activation by exogenous alkaline phosphatase

— patent US9580459B2, “Water-soluble ursodeoxycholic acid prodrugs” (Metselex, Inc., priority 2013, dated 2017)
